In ChEMBL document CHEMBL1126380, “New aza(nor)adamantanes are agonists at the newly identified serotonin 5-HT4 receptor and antagonists at the 5-HT3 receptor” (Bioorg Med Chem Lett, 1992):

Experiments:
[1] = molecular target: T1, 5-hydroxytryptamine receptor 3A (Rattus norvegicus, UniProt P35563); assay: Compound was evaluated […] for the antagonistic activity towards 5-hydroxytryptamine 3 receptor; type: functional
T1 sequence (P35563 whole entry): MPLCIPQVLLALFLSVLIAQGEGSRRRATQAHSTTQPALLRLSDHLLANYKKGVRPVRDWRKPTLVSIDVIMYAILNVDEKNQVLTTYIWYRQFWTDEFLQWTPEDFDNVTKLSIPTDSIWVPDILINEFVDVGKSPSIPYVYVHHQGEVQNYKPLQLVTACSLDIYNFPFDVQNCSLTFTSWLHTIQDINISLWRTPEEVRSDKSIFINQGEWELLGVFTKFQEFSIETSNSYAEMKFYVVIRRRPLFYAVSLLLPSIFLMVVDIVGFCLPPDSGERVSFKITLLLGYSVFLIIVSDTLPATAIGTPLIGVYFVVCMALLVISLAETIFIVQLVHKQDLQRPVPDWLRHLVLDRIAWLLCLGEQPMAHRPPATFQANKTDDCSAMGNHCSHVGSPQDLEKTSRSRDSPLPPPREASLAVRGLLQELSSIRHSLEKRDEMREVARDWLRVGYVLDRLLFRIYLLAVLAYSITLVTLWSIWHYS

[2] = molecular target: 5-hydroxytryptamine receptor 4 (Rattus norvegicus, UniProt Q62758); assay: Compound was evaluated for the agonistic activity towards 5-hydroxytryptamine 4 receptor using the rat tunica muscularis mucosae (TMM) esophagus strip assay; type: functional, tissue-based, Muscularis mucosa
[3] = system: Rattus norvegicus; assay: Minimum effective dose(ip) required for inhibition of serotonin-induced bradycardic response in the Bezold-Jarisch reflex functional model; details: for minimal effective dose: Rattus norvegicus, ip, read-out: MED

5-hydroxytryptamine receptor 4, sequence (Q62758 whole entry): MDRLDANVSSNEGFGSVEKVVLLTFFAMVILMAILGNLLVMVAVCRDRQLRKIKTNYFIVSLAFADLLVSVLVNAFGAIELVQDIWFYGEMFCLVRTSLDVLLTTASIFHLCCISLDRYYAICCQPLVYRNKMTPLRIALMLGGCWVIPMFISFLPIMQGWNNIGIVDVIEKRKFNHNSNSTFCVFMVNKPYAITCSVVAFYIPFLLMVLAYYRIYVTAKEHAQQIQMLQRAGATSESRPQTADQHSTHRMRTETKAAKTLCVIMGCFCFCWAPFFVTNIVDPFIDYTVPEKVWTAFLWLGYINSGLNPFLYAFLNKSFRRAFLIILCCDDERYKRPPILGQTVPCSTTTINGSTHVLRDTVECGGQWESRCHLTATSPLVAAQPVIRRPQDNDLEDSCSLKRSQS

Ki [1]	EC50 [2]	SMILES	minimal effective dose [3]	MED [3]
3.9 nM	3870 nM	COc1cc(N)c(Cl)cc1C(=O)N[C@H]1C2CC3CN(C2)CC31 (some centres undefined)	0.01 mg/kg	–
1.2 nM	51.3 nM	COc1cc(N)c(Cl)cc1C(=O)N[C@@H]1C2CC3CN(C2)CC31 (some centres undefined)	0.01 mg/kg	–
9 nM	262 nM	COc1cc(N)c(Cl)cc1C(=O)NC1C2CC3CC1CN(C3)C2 (stereo in doubt)	–	0.03 mg/kg
336 nM	538 nM	COc1cc(N)c(Cl)cc1C(=O)NC1C2CC3CC1CN(C3)C2 (stereo in doubt; 1A)	–	10 mg/kg
–	–	COc1cc(N)c(Cl)cc1C(=O)N[C@@H]1CCN(CCCOc2ccc(F)cc2)C[C@@H]1OC [CISAPRIDE]	5 mg/kg	–
5.6 nM	98 nM	COc1cc(N)c(Cl)cc1C(=O)NC1CCN2CCCC1C2 (centres undefined) [RENZAPRIDE]	0.25 mg/kg	–

SMILES	Ki [1]	EC50 [2]	minimal effective dose [3]	MED [3]
COc1cc(N)c(Cl)cc1C(=O)N[C@@H]1CN2CCC1CC2	0.23 nM	203 nM	0.3 mg/kg	–
